Test results from patent US20180271823A1, “SULFUR-BASED BROAD SPECTRUM ANTIVIRALS” (priority 2017, published 2018).

How the values were obtained:
[1] = test system: pseudotyped NiV/VSV virus (pNiV); type: cell-based, Nipah virus
HSV-1 KOS = type: cell-based
[2] = test system: Human respiratory syncytial virus (RSV A2 strain); assay: Plaque assay for RSV infections; type: cell-based
[3] = test system: vesicular stomatitis virus (VSV); type: cell-based
Influenza virus = type: cell-based
[4] = test system: bovine rotavirus strain NCDV; assay: Rotavirus infection assay in MA104 cells; type: cell-based
[5] = test system: 293T cells transfected with NiV F and G; type: cell-based
[6] = test system: NiV F and G glycoproteins; type: cell-based
pNiV viral membrane [7] = test system: pNiV viral membrane; set-up: species or system NiV
pNiV viral membrane [8] = test system: pNiV viral membrane; set-up: species or system NiV; remark: listed apart in the source
NiV G glycoprotein = NiV G glycoprotein (Nipah virus, UniProt Q9IH62)
NiV F protein = NiV F protein (Nipah virus, UniProt Q9IH63)
[9] = molecular target: NiV F and NiV G on pseudotyped NiV virions (Nipah virus, UniProt Q9IH62+Q9IH63)
Vero cells = assay: Cytotoxicity / cell viability assay (CCK-8)
[10] = test system: some paramyxoviruses and pneumoviruses; conditions: cited from earlier work

NiV G glycoprotein, sequence (Q9IH62 whole entry, looked up): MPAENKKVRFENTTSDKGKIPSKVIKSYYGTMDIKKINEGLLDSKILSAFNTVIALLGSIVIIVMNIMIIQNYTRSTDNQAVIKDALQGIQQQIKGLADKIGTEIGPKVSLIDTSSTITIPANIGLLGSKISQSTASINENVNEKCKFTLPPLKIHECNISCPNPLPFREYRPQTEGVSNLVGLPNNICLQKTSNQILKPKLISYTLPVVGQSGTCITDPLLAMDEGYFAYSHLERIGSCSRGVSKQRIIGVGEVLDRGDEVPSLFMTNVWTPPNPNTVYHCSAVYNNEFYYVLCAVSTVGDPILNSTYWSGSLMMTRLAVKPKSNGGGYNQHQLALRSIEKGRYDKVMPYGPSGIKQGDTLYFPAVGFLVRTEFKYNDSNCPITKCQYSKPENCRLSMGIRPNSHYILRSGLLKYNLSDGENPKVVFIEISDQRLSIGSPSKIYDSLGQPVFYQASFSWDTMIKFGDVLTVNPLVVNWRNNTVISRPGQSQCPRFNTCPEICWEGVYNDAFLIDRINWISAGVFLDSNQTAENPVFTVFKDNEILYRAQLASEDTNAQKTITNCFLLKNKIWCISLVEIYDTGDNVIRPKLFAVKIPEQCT
NiV F protein, sequence (Q9IH63 110-546 limits assumed): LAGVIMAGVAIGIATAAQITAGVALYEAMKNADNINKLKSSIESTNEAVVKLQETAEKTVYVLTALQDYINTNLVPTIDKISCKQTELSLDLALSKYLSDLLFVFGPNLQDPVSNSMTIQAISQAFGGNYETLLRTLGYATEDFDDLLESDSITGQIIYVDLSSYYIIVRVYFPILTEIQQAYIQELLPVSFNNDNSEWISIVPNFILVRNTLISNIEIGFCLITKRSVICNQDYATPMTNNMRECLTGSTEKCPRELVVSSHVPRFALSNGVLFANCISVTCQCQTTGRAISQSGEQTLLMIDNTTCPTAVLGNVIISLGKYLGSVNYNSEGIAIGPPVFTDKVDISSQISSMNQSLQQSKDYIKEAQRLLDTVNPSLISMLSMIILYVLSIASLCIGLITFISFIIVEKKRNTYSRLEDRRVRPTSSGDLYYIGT
NiV F protein, sequence (Q9IH63 27-109 limits assumed): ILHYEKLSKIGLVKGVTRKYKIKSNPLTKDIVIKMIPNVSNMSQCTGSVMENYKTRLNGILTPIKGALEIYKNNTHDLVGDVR

COC(=O)C(CSSC(=O)c1ccccc1)NC(=O)c1ccccc1 (centres unmarked) [XM-01]
capability of treated virions to infect Vero cells [1]: highly inhibited | inhibition when added after infection (time of addition) [1]: completely incapable of inhibiting the virus | inhibitory activity in the absence of light [1]: did not need light to inhibit pNiV infections | inhibitory properties [1]: high inhibitory properties | potency as antiviral inhibitor compared with NaHS or GYY4137 [1]: much more potent | viral infection of pretreated cells [1]: did not significantly reduce viral infection | inhibition of infectivity ([1]; 10 μM): high inhibition of infectivity | EC50 ([1]; read-out: EC50 (inhibitory concentration, pNiV system)): ~1 µM | HSV-1 plaque formation (HSV-1 KOS): inhibit HSV-1 plaque formation in a concentration-dependent fashion | RSV infection [2]: inhibited | VSV infection [3]: inhibited | Influenza virus infection (Influenza virus): inhibited | non-enveloped rotavirus infection [4]: no significant inhibition | cell to cell fusion [5]: inhibit cell to cell fusion | protein G or F expression on cell surfaces [6]: neither XM-01 at 10 μM nor LJ001 at 1 μM significantly affect | RNA spill from virions (TEM) (pNiV viral membrane [7]): RNA spilled more frequently | viral membrane appearance (TEM) (pNiV viral membrane [7]): compromised viral membrane | ratio of excimer to monomer (membrane fluidity) (pNiV viral membrane [8]): considerably lower ratio of excimers to monomers | ephrinB2 receptor binding ability of NiV G (NiV G glycoprotein): did not interfere | NiV-F protein triggering (NiV F protein): not decreased | glycoprotein conformations (antibody binding to NiV F or NiV G) [9]: no significant changes in antibody binding | cytotoxicity (Vero cells; 1, 3, and 10 μM): low cytotoxicity | difference between inhibitory and cytotoxic concentrations (Vero cells; EC50 pNiV vs CC50): ~3 log | CC50 (Vero cells; Vero cells, 1 μM-1 mM, calculated using Graphpad Prism): ~1000 µM

COC(=O)C(CSC(C)=O)NC(=O)c1ccccc1 (centres unmarked) [XM-11]
inhibitory properties [1]: high inhibitory properties

COC(=O)C(CSC(=O)c1ccccc1)NC(=O)c1ccccc1 (centres unmarked) [XM-10]
inhibitory properties [1]: high inhibitory properties

CC(=O)NC(CSSC(=O)c1ccccc1)C(=O)NCc1ccccc1 (centres unmarked) [XM-02]
inhibitory properties [1]: high inhibitory properties

C1COCCN1.COc1ccc(P(=S)(S)N2CCOCC2)cc1 (centres unmarked) [GYY4137]
EC50 [10]: 10000 µM

COC(=O)C(CSSC(C)=O)NC(=O)c1ccccc1 (centres unmarked) [XM-03]
inhibitory properties [1]: high inhibitory properties
